Experimental data reported in paper PMC9127750, “Structure-based design of CDC42 effector interaction inhibitors for the treatment of cancer” (Cell reports, 2022).
Where “and” joins values, the source holds several entries; their conditions need not be identical. Identical values can stand only once.

Tested on: WM3248 melanoma cells, 486 antibodies
Assay: Reverse phase protein arrays (RPPA)
Type: cell-based, Human
Source text: Pellets were snap frozen in liquid nitrogen and shipped to MD Anderson Cancer Center core RPPA facility for RPPA analysis (Table S5). Three biological replicates for each sample were generated.
Nomenclatures on the RPPA heatmaps: name_of_antibody.species_of_antibody.status_of_antibody. V - antibody validated; C - validation of antibody in progress; Q - antibody nonspecific; E – under evaluation; antibodies raised in M - mouse, G - goat, R - rabbit, or T - rat.

Q: How did the “RPPA EGFR_pY1068.R.C” value (5 uM, single samples) turn out when `CN(C)c1cccc(Nc2cc(-c3ccccc3)nc(C3CCNCC3)n2)c1` [ARN22089, N1,N1-dimethyl-N3-(6-phenyl-2-(piperidin-4-yl)pyrimidin-4-yl)benzene-1,3-diamine] was run?
A: 1.000 and 0.953 and 1.026

Q: And the “RPPA EGFR_pY1173.R.V” value (5 uM, single samples)?
A: 0.975 and 1.083 and 1.079

Q: What about the “RPPA EMA.M.C” value (5 uM, single samples) of the same compound?
A: 1.076 and 0.967 and 1.014

Q: What about the “RPPA ENY2.M.C” value (5 uM, single samples) of the same compound?
A: 0.948 and 0.847

Q: What about the “RPPA ER.a.R.V” value (5 uM, single samples) of the same compound?
A: 0.800 and 1.157 and 1.137

Q: What about the “RPPA ER.a_pS118.R.V” value (5 uM, single samples) of the same compound?
A: 0.923 and 1.516 and 1.141

Q: And the “RPPA ERCC1.R.C” value (5 uM, single samples)?
A: 1.055 and 0.895 and 0.971

Q: What about the “RPPA ERCC5.R.C” value (5 uM, single samples) of the same compound?
A: 1.027 and 0.974 and 0.973

Q: What about the “RPPA ERRalpha.R.V” value (5 uM, single samples) of the same compound?
A: 1.078 and 0.970 and 0.952

Q: What about the “RPPA EVI1.R.V” value (5 uM, single samples) of the same compound?
A: 0.942 and 0.941

Q: What about the “RPPA Elk1_pS383.R.C” value (5 uM, single samples) of the same compound?
A: 0.946 and 1.013 and 1.129

Q: And the “RPPA Enolase.1.R.V” value (5 uM, single samples)?
A: 1.024 and 0.893 and 0.818

Q: What about the “RPPA Enolase.2.R.V” value (5 uM, single samples) of the same compound?
A: 0.995 and 0.946

Q: And the “RPPA EphA2.R.V” value (5 uM, single samples)?
A: 0.776 and 1.046

Q: And the “RPPA EphA2_pS897.R.C” value (5 uM, single samples)?
A: 0.644 and 1.190 and 1.055

Q: And the “RPPA EphA2_pY588.R.C” value (5 uM, single samples)?
A: 0.942 and 0.920

Q: What about the “RPPA Erk5.R.V” value (5 uM, single samples) of the same compound?
A: 1.097 and 1.135

Q: What about the “RPPA Ets.1.R.V” value (5 uM, single samples) of the same compound?
A: 1.185 and 0.950 and 0.594

Q: What about the “RPPA FAK.R.C” value (5 uM, single samples) of the same compound?
A: 0.858 and 1.217 and 0.941

Q: What about the “RPPA FAK_pY397.R.V” value (5 uM, single samples) of the same compound?
A: 1.026 and 0.959 and 1.059

Q: And the “RPPA FANCD2.R.V” value (5 uM, single samples)?
A: 0.883 and 1.063

Q: And the “RPPA FASN.R.V” value (5 uM, single samples)?
A: 1.017 and 0.767

Q: And the “RPPA FGF.basic.R.C” value (5 uM, single samples)?
A: 0.868 and 1.191

Q: And the “RPPA FN14.R.C” value (5 uM, single samples)?
A: 0.857 and 1.226 and 1.168

Q: What about the “RPPA FOXM1.R.V” value (5 uM, single samples) of the same compound?
A: 0.885

Q: And the “RPPA FOXO3.R.V” value (5 uM, single samples)?
A: 0.861 and 0.945 and 1.100

Q: And the “RPPA FRS2.alpha_pY196.R.V” value (5 uM, single samples)?
A: 0.930 and 0.961 and 0.957

Q: What about the “RPPA FTO.R.V” value (5 uM, single samples) of the same compound?
A: 1.124 and 0.945 and 0.752

Q: What about the “RPPA FoxO3a_pS318_S321.R.C” value (5 uM, single samples) of the same compound?
A: 0.918 and 0.939

Q: What about the “RPPA G6PD.R.V” value (5 uM, single samples) of the same compound?
A: 0.943 and 0.965

Q: What about the “RPPA GATA3.M.V” value (5 uM, single samples) of the same compound?
A: 0.797 and 0.715

Q: And the “RPPA GATA6.R.V” value (5 uM, single samples)?
A: 0.919 and 1.005

Q: What about the “RPPA GCLC.R.C” value (5 uM, single samples) of the same compound?
A: 1.024 and 1.110 and 0.894

Q: What about the “RPPA GCLM.R.V” value (5 uM, single samples) of the same compound?
A: 0.926 and 0.954

Q: And the “RPPA GCN5L2.R.V” value (5 uM, single samples)?
A: 0.871 and 1.148

Q: What about the “RPPA GGPS1.M.V” value (5 uM, single samples) of the same compound?
A: 0.934 and 0.780

Q: What about the “RPPA GRB2.R.V” value (5 uM, single samples) of the same compound?
A: 0.928 and 1.049 and 1.170

Q: What about the “RPPA GRB7.R.V” value (5 uM, single samples) of the same compound?
A: 0.960 and 1.157 and 0.957

Q: And the “RPPA GSK.3B.R.C” value (5 uM, single samples)?
A: 1.001 and 1.019

Q: And the “RPPA GSK.3a.b.M.V” value (5 uM, single samples)?
A: 0.936 and 0.817

Q: What about the “RPPA GSK.3a.b_pS21_S9.R.V” value (5 uM, single samples) of the same compound?
A: 0.866 and 1.380 and 0.704

Q: And the “RPPA Gab2.R.V” value (5 uM, single samples)?
A: 1.251 and 0.896 and 0.910

Q: And the “RPPA Gli1.R.C” value (5 uM, single samples)?
A: 1.000 and 0.967

Q: And the “RPPA Gli3.R.C” value (5 uM, single samples)?
A: 0.979 and 1.003 and 0.745

Q: What about the “RPPA Glucocorticoid.Receptor.R.V” value (5 uM, single samples) of the same compound?
A: 1.035 and 1.000 and 1.021

Q: What about the “RPPA Glutamate.D1.2.R.V” value (5 uM, single samples) of the same compound?
A: 0.976 and 0.943 and 0.801

Q: What about the “RPPA Glutaminase.R.C” value (5 uM, single samples) of the same compound?
A: 0.948 and 1.063 and 0.715

Q: And the “RPPA Granzyme.B.R.V” value (5 uM, single samples)?
A: 0.964 and 1.146

Q: And the “RPPA Grp75.R.C” value (5 uM, single samples)?
A: 0.944 and 0.963

Q: And the “RPPA Gys.R.V” value (5 uM, single samples)?
A: 0.967 and 1.080

Q: What about the “RPPA Gys_pS641.R.V” value (5 uM, single samples) of the same compound?
A: 0.994 and 1.246 and 0.822

Q: What about the “RPPA H2AX_pS139.R.C” value (5 uM, single samples) of the same compound?
A: 0.914 and 1.103

Q: What about the “RPPA H2AX_pS140.M.C” value (5 uM, single samples) of the same compound?
A: 1.104 and 0.895 and 0.770

Q: And the “RPPA HER2.M.V” value (5 uM, single samples)?
A: 0.948 and 0.899

Q: What about the “RPPA HER2_pY1248.R.V” value (5 uM, single samples) of the same compound?
A: 0.827 and 1.156

Q: What about the “RPPA HER3.R.V” value (5 uM, single samples) of the same compound?
A: 0.886 and 0.834

Q: What about the “RPPA HER3_pY1289.R.C” value (5 uM, single samples) of the same compound?
A: 0.992 and 0.888

Q: What about the “RPPA HES1.R.V” value (5 uM, single samples) of the same compound?
A: 1.367 and 1.154

Q: And the “RPPA Heregulin.R.V” value (5 uM, single samples)?
A: 0.832 and 1.116 and 1.160

Q: What about the “RPPA eEF2K.R.V” value (5 uM, single samples) of the same compound?
A: 0.918 and 0.788

Q: And the “RPPA eIF4E.R.V” value (5 uM, single samples)?
A: 0.941 and 1.515 and 0.898

Q: And the “RPPA eIF4E_pS209.R.V” value (5 uM, single samples)?
A: 0.935 and 1.281 and 0.858

Q: What about the “RPPA eIF4G.R.C” value (5 uM, single samples) of the same compound?
A: 1.030 and 0.956 and 1.155

Q: What about the “RPPA MYH11.R.C Average” value (10 uM) of the same compound?
A: 1.243

Q: What about the “RPPA Myosin.IIa.R.C Average” value (10 uM) of the same compound?
A: 0.941

Q: And the “RPPA Myosin.IIa_pS1943.R.V Average” value (10 uM)?
A: 1.022

Q: And the “RPPA Myt1.R.C Average” value (10 uM)?
A: 0.989

Q: What about the “RPPA N.Cadherin.R.V Average” value (10 uM) of the same compound?
A: 1.064

Q: What about the “RPPA N.Ras.M.V Average” value (10 uM) of the same compound?
A: 0.991

Q: What about the “RPPA NDRG1_pT346.R.V Average” value (10 uM) of the same compound?
A: 1.015

Q: And the “RPPA NDUFB4.R.V Average” value (10 uM)?
A: 1.035

Q: And the “RPPA NRF2.R.C Average” value (10 uM)?
A: 0.996

Q: And the “RPPA Notch1.R.V Average” value (10 uM)?
A: 1.064

Q: What about the “RPPA Notch1.cleaved.R.V Average” value (10 uM) of the same compound?
A: 0.926

Q: What about the “RPPA Notch3.R.C Average” value (10 uM) of the same compound?
A: 1.098

Q: And the “RPPA Oct.4.R.C Average” value (10 uM)?
A: 1.008

Q: And the “RPPA P.Cadherin.R.C Average” value (10 uM)?
A: 0.973

Q: And the “RPPA PAI.1.M.V Average” value (10 uM)?
A: 1.014

Q: And the “RPPA PAICS.R.C Average” value (10 uM)?
A: 0.920

Q: What about the “RPPA PAK1.R.V Average” value (10 uM) of the same compound?
A: 0.961

Q: And the “RPPA PAK4.R.V Average” value (10 uM)?
A: 1.063
